In patent US6440680B1, “Methods of identifying modulators of prostaglandin receptor EP1” (Merck Frosst Canada, Inc., priority 1993, dated 2002):

Experiments:
EP1 receptor [1] = biological target: T1, EP1 receptor (Homo sapiens, UniProt P34995, A71T/L230H); test: [3H]PGE2 binding assay with membranes of pcDNA-EP1-transfected COS-M6 cells; design: expressed in transfected cells; host or cells: COS-M6 cells (membrane fraction); conditions: for IC50: 0.5 nM [3H]PGE2, FIG. 3B, read-out: IC50 for competition for [3H]PGE2 specific binding; for rank order of potency for competition for [3H]PGE2 specific binding: FIG. 3A, 0.03 nM-10 μM competitor
T1 sequence (P34995 1-402 A71T/L230H): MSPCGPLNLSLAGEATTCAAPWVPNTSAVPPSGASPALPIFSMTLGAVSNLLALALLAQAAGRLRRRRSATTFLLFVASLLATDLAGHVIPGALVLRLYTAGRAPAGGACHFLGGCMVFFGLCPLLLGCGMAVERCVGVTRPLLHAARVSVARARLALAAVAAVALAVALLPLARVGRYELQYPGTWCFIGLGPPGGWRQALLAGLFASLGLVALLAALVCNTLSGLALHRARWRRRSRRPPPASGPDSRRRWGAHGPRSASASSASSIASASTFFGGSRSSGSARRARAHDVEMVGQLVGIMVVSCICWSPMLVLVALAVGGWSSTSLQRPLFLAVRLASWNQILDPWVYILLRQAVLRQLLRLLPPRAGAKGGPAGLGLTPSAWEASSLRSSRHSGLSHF
Protocol: FIGS. 3A-3B—Competition for [^3H]PGE2 binding to pcDNA-EP1-transfected COS-M6 membranes: [^3H]PGE2 binding assays were performed as described in the Methods in the presence of Panel A: 0.03 nM-10 μM PGE2 (Δ), PGE1 (▪), PGF2α (□), PGD2 (●), Panel B: 3 nM-100 μM AH6809 (◯), SC19220 (Δ), and Butaprost (⋄). Butaprost and AH 6809 were generous gifts from Miles Inc. and Glaxo Group Research Ltd.
The pcDNA-EP1 plasmid was transfected into COS-M6 Cells using the DEAE-dextran method. The cells were maintained in culture for 72 h, then harvested and membranes prepared by differential centrifugation (1000×g or 10 min, then 100,000×g for 30 min) following lysis of the cells by nitrogen cavitation (Frey, et al., 1993). [3H]Prostaglandin E2 ([^3H]PGE2) binding assays were performed in 10 mM potassium phosphate (pH 6.0), containing 1 mM EDTA, 0.5 nM [^3H]PGE2 (154 Ci/mmol; DuPont-New England Nuclear) and 60-100 μg of protein from the 100,000×g membrane fraction. Incubations were conducted for 1 h at room temperature prior to separation of the bound and free radioligand by rapid filtration as previously described (Frey et al., 1993 Eur. J. Mol. Pharmacol., 244, pp 239-250). Residual [3H]PGE2 bound to the filter was quantitated by liquid scintillation counting. Specific binding was defined as the difference between total binding and non-specific binding, determined in the presence of 1 μM PGE2.

EP1 receptor [2] = biological target: T1, EP1 receptor; test: Aequorin luminescence assay in pcDNA-EP1-injected Xenopus oocytes; type: cell-based; conditions: for agonist potency from dose-response of aequorin light emission: aequorin-loaded oocytes, FIG. 4E
Protocol: (§1) FIG. 4A-E—Expression of prostaglandin E2 receptor in Xenopus oocytes. Panel A: An inward Ca^2—dependent Cl^− current (shown as downward deflection) evoked by bath perfusion of 1 μM PGE2. The oocyte was injected with 5 ng of pcDNA-EP1 (Bam) and voltage-clamped at −60 mV. Panel B-D: PGE2-induced light responses in aequorin loaded oocytes. The intensity of aequorin light emission is expressed in relative units and the background emission typically was 0.5-0.7 units units. The PGE2 was injected into the recording cuvette at 10 s at a final concentration indicated on each trace Panel E; Light responses were evoked by different concentrations of PGE2 and PGF2α. Each bar represents the mean±s.e.m. of data from 10 to 15 oocytes from 4 donors. Data are expressed as the percentage of the response observed with 1 μM of PGE2.
Oocytes were taken from adult females of Xenopus laevis using standard surgical procedure (Colman, A., 1984 In: Transcription and Translation—A Practical Approach, IRL Press). To remove follicle cells, oocytes were treated for 2-3 h with freshly made collagenase (2 mg/ml, type 2, Worthington Biochemical Corp., Freehold, N.J.) in Ca^2+-free ND96 solution (ND96 in mM: NaCl 96, KCl 2, MgCl2 1, HEPES 5, Na-pyruvate 2.5, theophylline 0.5, gentamicin […], +1.8 CaCl2, pH 7.6). […] Functional activity was determined by measurement of either agonist-induced Ca^2+-dependent Cl^− current or light emission in oocytes injected with the Ca^2+-specific photoprotein aequorin (J. Blinks, Friday Harbor Photoproteins, Washington), (Giladi and Spindel 1991 Biotechniques, 10, pp 744-747). […] Ligand-containing solution was perfused and the current response was recorded. For the luminometric assay, aequorin-loaded oocytes (100 ng/ooctye) were placed individually in cuvettes containing 0.4 ml ND96 and the light emission provoked by ligand addition was recorded using a Bio-Orbit 1251 luminometer (Fisher Sci. Ltd.).
Functional activity was determined in pcDNA-EP1-injected oocytes using electrophysiological and aequorin luminescence assays. […]

EP1 receptor [3] = biological target: T1, EP1 receptor; test: Electrophysiological assay (Ca2+-dependent Cl- current) in pcDNA-EP1-injected Xenopus oocytes; type: cell-based; conditions: bath perfusion of 1 μM PGE2, voltage clamped at -60 mV
Protocol: as §1
Oocytes were taken from adult females of Xenopus laevis using standard surgical procedure (Colman, A., 1984 In: Transcription and Translation—A Practical Approach, IRL Press). […] Functional activity was determined by measurement of either agonist-induced Ca^2+-dependent Cl^− current or light emission in oocytes injected with the Ca^2+-specific photoprotein aequorin (J. Blinks, Friday Harbor Photoproteins, Washington), (Giladi and Spindel 1991 Biotechniques, 10, pp 744-747). […] Ligand-containing solution was perfused and the current response was recorded. […]

thromboxane receptor = biological target: T2, thromboxane receptor (Homo sapiens, UniProt P21731); test: Binding of SQ-29548 in human embryonic kidney 293 cells and membranes transfected with thromboxane-receptor cDNA
T2 construct: use of Vent polymerase (New England Biolabs) enabled amplification of the complete cDNA; expressed in transfected cells; host or cells: human embryonic kidney 293 cells and membranes
T2 sequence (P21731 1-343): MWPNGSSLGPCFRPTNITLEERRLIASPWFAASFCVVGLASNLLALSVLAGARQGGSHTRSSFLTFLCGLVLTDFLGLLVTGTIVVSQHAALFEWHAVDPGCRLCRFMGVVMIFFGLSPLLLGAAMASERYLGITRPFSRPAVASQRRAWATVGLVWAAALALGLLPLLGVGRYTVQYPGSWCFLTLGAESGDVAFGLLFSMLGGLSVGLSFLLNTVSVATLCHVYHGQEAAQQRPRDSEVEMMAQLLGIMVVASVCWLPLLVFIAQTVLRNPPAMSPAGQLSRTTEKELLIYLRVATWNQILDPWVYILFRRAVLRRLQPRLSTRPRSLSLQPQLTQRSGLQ
Description: The thromboxane receptor has been expressed in Xenopus oocytes. It can couple with endogenous signal transduction components to elicit a calcium-activated Cl^− current recorded by electrophysiological measurement using the procedure described by Hirata, M. et al., (1991), Nature, 349, pp. 617. Binding studies have been performed with COS-1 cell membranes transfected by thromboxane receptor cDNA using the ligand S-145 (Hirata, M. et al., (1991), Nature, 349, pp. 617). […] This level of expression is at least 5-10 times higher than in platelet membranes. On a per-cell basis assuming a 10% transfection efficiency, we estimate ≈10^6 binding sites/tranfected cell as compared to ≈1300 sites present on a platelet (Hourani, S. M. O. et al., (1991), Pharmacol. Rev., 43, pp. 243).

For `CC(=O)NNC(=O)N1Cc2ccccc2Oc2ccc(Cl)cc21` [SC 19220], the IC50 (EP1 receptor [1]) was about 6.7 µM.
In the case of `CCCC1([C@H](O)C/C=C/[C@H]2[C@H](O)CC(=O)[C@@H]2CCCCCCC(=O)OC)CCC1` [butaprost], the IC50 (EP1 receptor [1]) is reported as 50 µM and the “activity at the [3H]PGE2 specific binding sites” value (EP1 receptor [1]; FIG. 3B) is reported as “relatively inactive”.
In the case of `CCCCC[C@H](O)/C=C/[C@H]1[C@H](O)CC(=O)[C@@H]1C/C=C\CCCC(=O)O` [PGE2], the “agonist potency from dose-response of aequorin light emission” value (EP1 receptor [2]) is reported as “more potent agonist of the expressed receptor when compared to PGF2α”, the “intracellular calcium in pcDNA-EP1 injected oocytes” value (EP1 receptor [2]; oocytes challenged with PGE2) is reported as “dose-dependent increase in intracellular calcium” and the “Ca2+-dependent Cl- current response” value (EP1 receptor [3]) is reported as “prominent current responses”. For the same compound, the “rank order of potency for competition for [3H]PGE2 specific binding” value (“rank order of potency for competition” below) (EP1 receptor [1]) was “PGE2>PGE1>PGF2α>>PGD2”.
`CCCCC[C@H](O)/C=C/[C@H]1[C@H](O)CC(=O)[C@@H]1C/C=C\CCCC(=O)O` [[^3H]PGE2, [3H]Prostaglandin E2] was tested, and the “maximum number of specific binding sites (Bmax)” value (EP1 receptor [1]; Scatchard analysis, pcDNA-EP1 transfected COS-M6 cell membranes) was “approximately 360 fmol/mg of protein” and the Kd (EP1 receptor [1]; Scatchard analysis, pcDNA-EP1 transfected COS-M6 cell membranes, read-out: equilibrium dissociation constant (KD)) was 0.001 µM.
With `CCCCC[C@H](O)/C=C/[C@@H]1[C@@H](C/C=C\CCCC(=O)O)[C@@H](O)C[C@H]1O` [PGF2α] the “agonist potency from dose-response of aequorin light emission” value (EP1 receptor [2]) was “PGE2 was more potent agonist of the expressed receptor when compared to PGF2α” and the “rank order of potency for competition” value (EP1 receptor [1]) was “PGE2>PGE1>PGF2α>>PGD2”.
With `CCCCC[C@H](O)/C=C/[C@H]1[C@H](O)CC(=O)[C@@H]1CCCCCCC(=O)O` [PGE1] the “rank order of potency for competition” value (EP1 receptor [1]) was “PGE2>PGE1>PGF2α>>PGD2”.
In the case of `O=C(O)CCC/C=C\C[C@@H]1[C@H](CNNC(=O)Nc2ccccc2)[C@H]2CC[C@@H]1O2` [SQ-29548], the “binding affinity” value (thromboxane receptor) is reported as “high affinity binding” and the maximal binding (thromboxane receptor) is reported as 2-3 pmol/mg protein.
Work on `CC(C)Oc1ccc2c(=O)c3cc(C(=O)O)ccc3oc2c1` [AH 6809] yielded an IC50 (EP1 receptor [1]) of about 0.5 µM.
With `CCCCC[C@H](O)/C=C/[C@H]1C(=O)C[C@H](O)[C@@H]1C/C=C\CCCC(=O)O` [PGD2] the “rank order of potency for competition” value (EP1 receptor [1]) was “PGE2>PGE1>PGF2α>>PGD2”.
